Data: PubChem BioAssay AID1963831 (Molecular Pharmacology Branch, DTP, NCI, 2024)

Test system: 889142-216-R-J1-PDC complex spheroid viability
Experiment: Anticancer human tumor 889142-216-R-J1-PDC patient-derived bladder carcinoma cell line growth inhibition [POLQ]
Settings: for IC50: curve of first compound; for viability, T/C: stronger effect = lower value
How it was run: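 PDC + HUVEC + MSC complex spheroids; POLQ inhibitors ± partner drugs; top conc. at/near clinical Cmax, else 10 microM (SN-38 1 microM), half-log dilutions; 37 degrees C, 5% CO2.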

[1] = second compound 0.0316 µM, first compound 0.0316 µM
[2] = second compound 0.0316 µM, first compound 0.1 µM
[3] = second compound 0.1 µM, first compound 0.0316 µM
[4] = second compound 0.1 µM, first compound 0.1 µM
[5] = second compound 0.316 µM, first compound 0.0316 µM
[6] = second compound 0.316 µM, first compound 0.1 µM
[7] = second compound 1 µM, first compound 0.0316 µM
[8] = second compound 1 µM, first compound 0.1 µM
[9] = second compound 3.16 µM, first compound 0.0316 µM
[10] = second compound 3.16 µM, first compound 0.1 µM
[11] = second compound 10 µM, first compound 0.0316 µM
[12] = second compound 10 µM, first compound 0.1 µM
[13] = second compound 0.0316 µM, first compound 0.316 µM
[14] = second compound 0.0316 µM, first compound 1 µM
[15] = second compound 0.0316 µM, first compound 3.16 µM
[16] = second compound 0.0316 µM, first compound 10 µM
[17] = second compound 0.1 µM, first compound 0.316 µM
[18] = second compound 0.1 µM, first compound 1 µM
[19] = second compound 0.1 µM, first compound 3.16 µM
[20] = second compound 0.1 µM, first compound 10 µM
[21] = second compound 0.316 µM, first compound 0.316 µM
[22] = second compound 0.316 µM, first compound 1 µM
[23] = second compound 0.316 µM, first compound 3.16 µM
[24] = second compound 0.316 µM, first compound 10 µM
[25] = second compound 1 µM, first compound 0.316 µM
[26] = second compound 1 µM, first compound 1 µM
[27] = second compound 1 µM, first compound 3.16 µM
[28] = second compound 1 µM, first compound 10 µM
[29] = second compound 3.16 µM, first compound 0.316 µM
[30] = second compound 3.16 µM, first compound 1 µM
[31] = second compound 3.16 µM, first compound 3.16 µM
[32] = second compound 3.16 µM, first compound 10 µM
[33] = second compound 10 µM, first compound 0.316 µM
[34] = second compound 10 µM, first compound 1 µM
[35] = second compound 10 µM, first compound 3.16 µM
[36] = second compound 10 µM, first compound 10 µM
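Also: spheroids exposed to compounds for seven days.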
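For viability, T/C in this document: 100% = DMSO vehicle control viability.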

Work on `Cn1ncnc1[C@H]1c2n[nH]c(=O)c3cc(F)cc(c23)N[C@@H]1c1ccc(F)cc1` + Cc1cccc(N(C)C(=O)C2C(O)CCN2c2nc(C)cc(C(F)(F)F)c2C#N)c1 yielded an IC50 (second compound 0.0316 µM) of over 0.1 µM, an IC50 (second compound 0.1 µM) of over 0.1 µM and an IC50 (second compound 0.316 µM) of over 0.1 µM. It also gave an IC50 (second compound 1 µM) of over 0.1 µM, an IC50 (second compound 3.16 µM) of over 0.1 µM and an IC50 (second compound 10 µM) of over 0.1 µM. For the same compound, the viability, T/C (second compound 0.0316 µM, first compound 0.000316 µM) was 100%, the viability, T/C (second compound 0.0316 µM, first compound 0.001 µM) was 93.9% and the viability, T/C (second compound 0.0316 µM, first compound 0.00316 µM) was 132%. The viability, T/C (second compound 0.0316 µM, first compound 0.01 µM) was 74%, the viability, T/C [1] was 85.1% and the viability, T/C [2] was 67.8%. The viability, T/C (second compound 0.1 µM, first compound 0.000316 µM) was 128%, the viability, T/C (second compound 0.1 µM, first compound 0.001 µM) was 101% and the viability, T/C (second compound 0.1 µM, first compound 0.00316 µM) was 130%. The viability, T/C (second compound 0.1 µM, first compound 0.01 µM) was 104%, the viability, T/C [3] was 87.9% and the viability, T/C [4] was 71.3%. For the same compound, the viability, T/C (second compound 0.316 µM, first compound 0.000316 µM) was 109%, the viability, T/C (second compound 0.316 µM, first compound 0.001 µM) was 111% and the viability, T/C (second compound 0.316 µM, first compound 0.00316 µM) was 91.7%. For the same compound, the viability, T/C (second compound 0.316 µM, first compound 0.01 µM) was 93.1%, the viability, T/C [5] was 80.4% and the viability, T/C [6] was 65.5%. It also gave a viability, T/C (second compound 1 µM, first compound 0.000316 µM) of 97.5%, a viability, T/C (second compound 1 µM, first compound 0.001 µM) of 110% and a viability, T/C (second compound 1 µM, first compound 0.00316 µM) of 92%. For the same compound, the viability, T/C (second compound 1 µM, first compound 0.01 µM) was 92.9%, the viability, T/C [7] was 81.9% and the viability, T/C [8] was 72.9%. It also gave a viability, T/C (second compound 3.16 µM, first compound 0.000316 µM) of 109%, a viability, T/C (second compound 3.16 µM, first compound 0.001 µM) of 105% and a viability, T/C (second compound 3.16 µM, first compound 0.00316 µM) of 82.7%. It also gave a viability, T/C (second compound 3.16 µM, first compound 0.01 µM) of 73.6%, a viability, T/C [9] of 75.5% and a viability, T/C [10] of 73.4%. The viability, T/C (second compound 10 µM, first compound 0.000316 µM) was 83.8%, the viability, T/C (second compound 10 µM, first compound 0.001 µM) was 71.6% and the viability, T/C (second compound 10 µM, first compound 0.00316 µM) was 69.1%. It also gave a viability, T/C (second compound 10 µM, first compound 0.01 µM) of 77.1%, a viability, T/C [11] of 81.5% and a viability, T/C [12] of 62.5%.
Work on `CC(C)n1c(=O)n(C)c2cnc3cc(F)c(-c4ccc(OCCCN5CCCCC5)nc4)cc3c21` + COC1C(OC(N)=O)C(O)C(Oc2ccc3c(O)c(NC(=O)c4ccc(O)c(CC=C(C)C)c4)c(=O)oc3c2C)OC1(C)C yielded an IC50 (second compound 0.0316 µM) of over 10 µM, an IC50 (second compound 0.1 µM) of 6.09 µM and an IC50 (second compound 0.316 µM) of over 10 µM. For the same compound, the IC50 (second compound 1 µM) was over 10 µM, the IC50 (second compound 3.16 µM) was 8.69 µM and the IC50 (second compound 10 µM) was over 10 µM. For the same compound, the viability, T/C [1] was 91.2%, the viability, T/C [2] was 86.3% and the viability, T/C [13] was 78.3%. The viability, T/C [14] was 86.5%, the viability, T/C [15] was 54.6% and the viability, T/C [16] was 52.8%. For the same compound, the viability, T/C [3] was 88.6%, the viability, T/C [4] was 105% and the viability, T/C [17] was 81.7%. The viability, T/C [18] was 85.8%, the viability, T/C [19] was 60.4% and the viability, T/C [20] was 41.5%. For the same compound, the viability, T/C [5] was 105%, the viability, T/C [6] was 71.1% and the viability, T/C [21] was 85.8%. The viability, T/C [22] was 76.8%, the viability, T/C [23] was 58.9% and the viability, T/C [24] was 56.8%. The viability, T/C [7] was 113%, the viability, T/C [8] was 86.2% and the viability, T/C [25] was 80.4%. For the same compound, the viability, T/C [26] was 71.2%, the viability, T/C [27] was 67.1% and the viability, T/C [28] was 52.2%. For the same compound, the viability, T/C [9] was 92.4%, the viability, T/C [10] was 106% and the viability, T/C [29] was 88.7%. The viability, T/C [30] was 71.4%, the viability, T/C [31] was 61.6% and the viability, T/C [32] was 46.9%. It also gave a viability, T/C [11] of 94.4%, a viability, T/C [12] of 92.8% and a viability, T/C [33] of 81.3%. The viability, T/C [34] was 88%, the viability, T/C [35] was 65.9% and the viability, T/C [36] was 53.7%.
`CCc1cc2c(N3CCc4c(cc(Cn5ccnc5)cc4-c4cn(C)nc4C(F)(F)F)C3=O)ccnc2c(OC)n1` + Nc1ccc(C#CCN(C(=O)Cc2ncc(C(F)(F)F)cc2C(F)(F)F)c2ccc(F)cc2)nn1 was tested, and the IC50 (second compound 0.0316 µM) was over 10 µM, the IC50 (second compound 0.1 µM) was over 10 µM and the IC50 (second compound 0.316 µM) was over 10 µM. For the same compound, the IC50 (second compound 1 µM) was over 10 µM, the IC50 (second compound 3.16 µM) was over 10 µM and the IC50 (second compound 10 µM) was over 10 µM. It also gave a viability, T/C [1] of 98%, a viability, T/C [2] of 105% and a viability, T/C [13] of 116%. For the same compound, the viability, T/C [14] was 137%, the viability, T/C [15] was 103% and the viability, T/C [16] was 80.2%. For the same compound, the viability, T/C [3] was 115%, the viability, T/C [4] was 117% and the viability, T/C [17] was 104%. It also gave a viability, T/C [18] of 125%, a viability, T/C [19] of 99.2% and a viability, T/C [20] of 117%. It also gave a viability, T/C [5] of 98.8%, a viability, T/C [6] of 107% and a viability, T/C [21] of 116%. It also gave a viability, T/C [22] of 124%, a viability, T/C [23] of 127% and a viability, T/C [24] of 82.1%. It also gave a viability, T/C [7] of 103%, a viability, T/C [8] of 93.7% and a viability, T/C [25] of 125%. For the same compound, the viability, T/C [26] was 123%, the viability, T/C [27] was 99% and the viability, T/C [28] was 105%. For the same compound, the viability, T/C [9] was 105%, the viability, T/C [10] was 104% and the viability, T/C [29] was 120%. The viability, T/C [30] was 124%, the viability, T/C [31] was 111% and the viability, T/C [32] was 105%. It also gave a viability, T/C [11] of 118%, a viability, T/C [12] of 101% and a viability, T/C [33] of 129%. The viability, T/C [34] was 135%, the viability, T/C [35] was 120% and the viability, T/C [36] was 92.8%.
